Reference: patent US10793526B2, “Hydantoin derivative compounds, methods of use and methods of treatment” (University of South Florida, priority 2016, dated 2020)
Values after ≈ are worked out from the molar mass of the structure shown.

How the values were obtained:
MRSA [1] = experiment: Drug resistance assay; assay type: cell-based, Staphylococcus aureus
Protocol: The lead compound 22 was chosen for drug resistance studies. Briefly, after its MIC against MRSA was determined, the bacteria solution from the well of the ½ MIC was withdrawn and diluted to 1×10^6 CFU/mL for the next MIC measurement. The measurement was repeated for 14 passages.

[2] = test system: MRSA-induced lung inflammation; experiment: Rat model of MRSA-induced pneumonia, pathological analysis (H&E); assay type: in vivo; conditions: 10 mg/kg i.v.
Protocol: (§1) The rat model of MRSA-induced pneumonia.^4, 5
(§2) The protocol of animal studies was approved by the institutional committee for animal care of Nanjing University, and the experiments were conducted following the regulation of the National Ministry of Health of China. In Brief, male Wistar rats (6-8 weeks, ˜200 g in average weight) were subjected to fast for 12 h. Next, rats were anesthetized by intraperitoneal administration of 0.35 g/kg of chloral hydrate. To induce MRSA pneumonia, the trachea of rats were exposed, to which 100 μL PBS containing 2×10^6 CFU/mL MRSA in PBS was slowly injected. The rats were retained upright for 1 min, and the cut was sealed. The MRSA infection was allowed to develop for 24 h.
The hydantoin compound 22 or vancomycin were used as antibiotics in the study. In brief, a dose of 10 mg/kg of the drug was injected to the tested rats intravenously. On the day of 3 and 5, rats were sacrificed, and lung sections were stained with hematoxylin and eosin (H&E), and their morphology was investigated under a light microscope at 100× magnification. The existence (indicated by the infiltration of neutrophils) and the extent of possible inflammatory response (indicated by the integrity of the alveolar structure and endothelium cilium) were recorded from at least five randomly picked sections by an experienced physician.

[3] = test system: vancomycin-resistant Enterococcus faecalis (VREF, ATCC 700802); experiment: Minimum inhibitory concentration (MIC) assay, VREF; assay type: cell-based; conditions: Enterococcus faecalis, ATCC700802, Gram positive, 16 h incubation, read-out: MIC (μg/mL) VREF
Protocol: (§3) Minimum inhibitory concentrations (MICs) assay.^2
(§4) All compounds were tested against six different bacteria strains: methicillin-resistant S. aureus (MRSA, ATCC 33591), E. coli (ATCC 25922), methicillin-resistant S. epidermidis (MRSE, RP62A), K. pneumoniae (ATCC 13383), vancomycin-resistant Enterococcus faecalis (VREF, ATCC 700802), P. aeruginosa (ATCC 27853). One colony of each bacteria was inoculated in 4 mL TSB buffer at 37° C. overnight, which was then diluted 100 times, and the bacteria were allowed to grow to the mid-logarithmic phase. 50 μL hydantoin compounds in 2-fold serial dilution of TSB were added in the 96-well plate, then 50 μL diluted bacterial in TSB medium (1×10^6 CFU/mL) was added to each well. After 16 h of incubation at 37° C., the absorption at 600 nm wavelength on a Biotek Synergy HT microtiter plate reader was recorded. Minimum inhibitory concentrations were determined as the lowest concentrations that inhibited bacteria growth completely.

E. coli = experiment: Fluorescence microscopy (DAPI/PI) membrane damage, E. coli; assay type: cell-based, Escherichia coli; conditions: 5 μg/mL, 2 h
Protocol: Fluorescence microscopy.^2
Both propidium iodide (PI) and 4′, 6′-diamidino-2-phenylindole dihydrochloride (DAPI) fluorescent dyes were used in the studies to determine the ability of the compound 22 to compromise the membranes of MRSA and E. coli, respectively. […] After centrifugation for 15 min at 5000 rpm, cell pellets were washed with 1×PBS buffer, and incubated with PI (5 μg/mL) for 15 min on ice in the dark, then washed 2 times with PBS. Then the cell pellets were incubated with DAPI (10 μg/mL) in the similar way. The pellets were then diluted in 100 μL PBS, and 10-20 μL of the suspension was applied on chamber slides and observed under Zeiss Axio Image Zloptical microscope using 100× oil-immersion objective.

MRSA [4] = experiment: Fluorescence microscopy (DAPI/PI) membrane damage, MRSA; assay type: cell-based, Staphylococcus aureus; conditions: 5 μg/mL, 2 h
[5] = test system: methicillin-resistant S. aureus (MRSA, ATCC 33591); experiment: Minimum inhibitory concentration (MIC) assay, MRSA; assay type: cell-based, Staphylococcus aureus
Protocol: as §3, §4

[6] = test system: panel of Gram-positive and Gram-negative bacteria; experiment: Antimicrobial activity against the whole panel of bacteria; assay type: cell-based; conditions: all tested strains; read-out: MICs against all tested Gram-positive and Gram-negative strains
Protocol: as §3, §4

[7] = test system: P. aeruginosa (ATCC 27853); experiment: Minimum inhibitory concentration (MIC) assay, P. aeruginosa; assay type: cell-based, Pseudomonas aeruginosa
Protocol: as §3, §4

E. coli (ATCC 25922) = experiment: Minimum inhibitory concentration (MIC) assay, E. coli; assay type: cell-based, Escherichia coli; conditions: Escherichia coli, ATCC25922, Gram negative, 16 h incubation, read-out: MIC (μg/mL) E. coli
Protocol: as §3, §4

[8] = test system: ovarian cancer cells (C13); experiment: Selectivity for mammalian cells, C13; assay type: cell-based; conditions: Homo sapiens, read-out: IC50 toward ovarian cancer cells (C13)
MRSA [9] = experiment: Rat model of MRSA-induced pneumonia, bacterial count in lungs; assay type: in vivo; conditions: 10 mg/kg i.v.
Protocol: as §1, §2
Bronchoalveolar lavage (BAL) assay.
The assay was carried out to quantify the bacteria in the lungs of rats. The thorax of rats was opened, and the lungs were collected in each group at different time points. Then the lungs were malleated and homogenized by a glass homogenizer, and diluted with PBS to the determined volume. After that, 10 μL solution was picked up, diluted with PBS by 100-fold, and daubed on the isolation medium. Bacteria were counted in each sample after incubation for 24 h at 37° C., from which the number of bacteria (colonies/g tissue) was calculated.

[10] = test system: methicillin-resistant S. epidermidis (MRSE, RP62A); experiment: Minimum inhibitory concentration (MIC) assay, MRSE; assay type: cell-based, Staphylococcus epidermidis; conditions: Staphylococcus epidermidis, MRSE, Gram positive, 16 h incubation, read-out: MIC (μg/mL) MRSE
Protocol: as §3, §4

MRSA [11] = experiment: Time kill assay, MRSA; assay type: cell-based, Staphylococcus aureus
Protocol: Bacteria MRSA (Gram-positive) and E. coli (Gram-negative) suspensions were allowed to grow at 37° C. to the mid-logarithmic phase, and diluted to 1×10^6 CFU/mL, then incubated with the compound 22 at the concentration of 50, 25, 12.5 μg/mL at 10 min, 30 min, 1 h and 2 h, respectively. The resulted mixture was then diluted by 10^2 to 10^4 fold, from which 100 μL was spread on the TSB agar plate. The Number of bacteria colonies was counted after 20 h of incubation at 37° C.

In the case of CCCCCCCCCCCC(=O)N[C@@H](CCCCN)CN1CC(=O)N(c2cccc(Cl)c2)C1=O [Compound 22, (S)—N-(6-amino-1-(3-(3-chlorophenyl)-2,4-dioxoimidazolidin-1-yl)hexan-2-yl)dodecanamide], the “MIC against MRSA after 14 passages at half MIC” value (MRSA [1]) was “virtually remain unchanged”, the “lung inflammation (H&E staining), day 3” value ([2]; day 3) was “only mild inflammation” and the “lung inflammation (H&E staining), day 5” value ([2]; day 5) was “virtually the normal condition”. For the same compound, the MIC [3] was 0.5 µg/mL, the “membrane damage of E. coli (DAPI/PI staining)” value (E. coli) was “membranes of both MRSA and E. coli were damaged” and the “membrane damage of MRSA (DAPI/PI staining)” value (MRSA [4]) was “membranes of both MRSA and E. coli were damaged”. For the same compound, the MIC ([5]; Staphylococcus aureus, Gram positive, ATCC 33591, 16 h incubation, read-out: MIC (μg/mL) MRSA) was 0.5 µg/mL, the “effectiveness toward MRSA compared with nitrofurantoin” value ([5]; ratio of MICs) was 25 fold and the MIC [6] was < 1 µg/mL. For the same compound, the MIC ([7]; Pseudomonas aeruginosa, ATCC27853, Gram negative, ATCC 27853, 16 h incubation, read-out: MIC (μg/mL) P.A.) was 1 µg/mL, the “effectiveness toward P. aeruginosa compared with nitrofurantoin” value ([7]; ratio of MICs) was “at least 50 fold” and the MIC (E. coli (ATCC 25922)) was 1 µg/mL. The IC50 [8] was 90 µg/mL (≈ 177 µM), the “reduction of bacteria compared with the control, day 5” value (MRSA [9]) was 96% and the MIC [10] was 0.5 µg/mL. For the same compound, the “time to completely eradicate MRSA” value (MRSA [11]; 2.0 μg/mL (4×MIC)) was 60 min and the “time to completely eradicate MRSA” value (MRSA [11]; 25 μg/mL) was 10 min.
